Source: US12691092B2, “Method for reducing cutaneous skin scarring by pre-emptive priming and compounds and compositions for its implementation” (SOS SCIENCE OF SKIN LTD, priority 2020, dated 2026)

Key:
[1] = test system: human skin scarring model; assay: Skin thickness by high frequency ultrasound (HFUS); type: in vivo; conditions: significant in group-1 week 8 (p=0.002); group-2 weeks 6, 8; group-3 weeks 5-8; group-4 weeks 3, 5-8 (p<0.01)
Protocol: (§1) A double-blind randomized placebo-controlled trial was conducted using a temporal punch-biopsy model. The punch biopsy and topical application methodology used in the study is illustrated in FIG. 1, namely showing pre-injury pre-emptive priming (7-days), pre-injury pre-emptive priming (3-days), day of injury (immediate application on day 0), post-injury (delayed 2 weeks post injury) including biopsy time points and time of topical applications. Each group applied both placebo and topical formulations twice daily for the duration of the study until week 8, with only the starting time point differing between groups Participants were split into 4 groups (n=10 in each group) in order to compare different modes (timings) of commencement of the topical application: • Group-1: Pre-emptive Priming (7-days): pre-injury • Group-2: Pre-emptive Priming (3-days): pre-injury • Group-3: Immediate (0-day): day-of-injury • Group-4: Delayed (14-days): post-injury Clinical quantitative devices were used to objectively monitor cutaneous healing at weekly intervals and punch biopsies were performed on day 0 (uninjured skin) and at weeks 4 and 8 for protein and gene expression analyses. […] Structural changes in the scars were assessed clinically by high frequency ultrasound (HFUS) and elasticity probe, and elastin and collagen markers. […]

[2] = test system: Hemeoxygenase-1 (HO-1); assay: HO-1 immunohistochemical marker (anti-oxidant effect); type: in vivo, human; conditions: week 4, all groups, p<0.01
Protocol: as §1, with “Excisional skin biopsies” for “Structural changes”, “upper arms” for “the scars”, “evaluated weekly with multiple quantitative devices over an 8-week period.” for “assessed clinically by high frequency ultrasound (HFUS) and elasticity probe, and elastin and collagen markers.”

[3] = test system: elastin; assay: Gene expression analysis of elastin; type: in vivo, human; conditions: weeks 4 and 8; significant in groups-1 to 3 at week 8 (p<0.05)
Protocol: as §1, with “Excisional skin biopsies” for “Structural changes”, “upper arms” for “the scars”, “evaluated weekly with multiple quantitative devices over an 8-week period.” for “assessed clinically by high frequency ultrasound (HFUS) and elasticity probe, and elastin and collagen markers.”

O=C(OC1Cc2c(O)cc(O)cc2OC1c1cc(O)c(O)c(O)c1)c1cc(O)c(O)c(O)c1 (single isomer, unassigned; (-)) [EGCG, (-)-epigallocatechin-3-gallate]
HFUS skin thickness, EGCG scars compared to placebo scars [1]: lower | HO-1 levels, EGCG-treated samples compared to placebo [2]: significantly higher | Elastin gene expression, EGCG-treated samples compared to placebo [3]: upregulation
